From ChEMBL document CHEMBL1142403, “Synthesis and anti-cancer activity of benzothiazole containing phthalimide on human carcinoma cell lines” (Bioorg Med Chem, 2008)
Active and inactive are the calls of the source. No cut-off for these calls is given here.

Legend:
[1] = tested on: SK-HEP1; experiment: Cytotoxicity against human SK-Hep1 cells assessed as reduction in cellular ATP level after 48 hrs; assay type: functional, cell-based; settings: SK-HEP1, 48 h, pooled result: one value given for 3 cell lines, strains, targets or settings
[2] = target: T1, Caspase-3 (Homo sapiens) (UniProt P42574); experiment: Activation of human caspase 3 in human CA46 cells at 110 uM after 48 hrs by PerkinElmer Trupoint assay; assay type: cell-based
T1 sequence (whole entry): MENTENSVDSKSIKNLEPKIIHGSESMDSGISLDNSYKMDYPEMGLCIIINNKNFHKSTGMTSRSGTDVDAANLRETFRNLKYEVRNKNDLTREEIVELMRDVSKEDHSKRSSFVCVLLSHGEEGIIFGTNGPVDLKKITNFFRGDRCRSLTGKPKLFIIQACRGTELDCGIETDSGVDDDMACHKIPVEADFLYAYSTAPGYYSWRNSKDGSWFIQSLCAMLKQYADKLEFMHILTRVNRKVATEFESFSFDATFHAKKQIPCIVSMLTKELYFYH

[3] = target: T1, Caspase-3 (Homo sapiens); experiment: Activation of human caspase 3 in human SK-Hep1 cells at 110 uM after 48 hrs by PerkinElmer Trupoint assay; assay type: cell-based

| Activity [2] | Activity [3] | SMILES | IC50 [1] |
| --- | --- | --- | --- |
|  |  | C[C@@]12C(=O)N(c3nc4ccc(OC(F)(F)F)cc4s3)C(=O)[C@]1(C)[C@H]1CC[C@@H]2O1 [CANTHARIDIMIDE] | 15.2 µM |
| Active | Active | O=C1c2ccccc2C(=O)N1c1nc2ccc(OC(F)(F)F)cc2s1 [PHATHALIMIDE] | 69 µM |
